Experimental data published in patent US8895726B2, “Compounds derived from indole and pharmaceutical compositions containing them” (The Institut Curie, priority 2007, dated 2014).

Key:
[1] = system: Ter G1 mRNA; experiment: NMD measurement by RT-PCR, β-globin (G1) Ter mRNA; type: cell-based; conditions: both at the nucleus and at the cytoplasm (Ter G1 and Ter GPx1 mRNA)
Experimental: HeLa cells were grown in 60 mm dishes in DMEM medium (Dulbecco's Modified Eagle Medium, GIBCO-BRL) supplemented with 10% (v/v) of fetal calf serum at 37° C. and with 5% CO2. The cells (1×10^6) were then transfected with 3 μg of test plasmids pmCMV-G1 (Norm or 39Ter) (Sun et al., 1998) or 3 μg pf test plasmids pmCMV-GPx1 (Norm or 46Ter) (Moriarty et al., 1998) and 1 μg of reference plasmid phCMV-MUP (Belgrader and Maquat, 1994) by using the LIPOFECTAMINE PLUS REAGENT (INVITROGEN) kit according to the instructions of the manufacturer. 24 hours after transfection, the cells were treated for 20 hours with 5 μM of each of the compounds to be tested or with 0.01% (v/v) DMSO as a control. The total RNA was purified by using TRI reagent (SIGMA-ALDRICH) according to the instructions of the manufacturer, and then reverse transcription of the mRNAs G1, GPx1 and MUP was carried out before PCR amplification, in the presence of a ^32P-radiolabelled dCTP nucleotide. The PCR conditions and the analysis method were described earlier (Ishigaki et al., 2001). The PCR products were quantified on a Typhoon 9200 (Amersham Biosciences).
HeLa cells were transfected with two test plasmids coding for the RNAs of β-globin (G1) and of glutathione peroxidase 1 (GPx1) and having a termination codon either premature (Ter) or not (Norm). The G1 mRNA is subject to an NMD associated with the nucleus in non-erythroid cells (Thermann et al., 1998; Zhang et al., 1998) while GPx1 mRNA is subject to cytoplasmic NMD (Moriarty et al., 1998). Further, a reference plasmid coding of mRNA of a major urinary protein (MUP) was also introduced into the cells (Ishigaki et al., 2001).
24 hours after transfection, the cells were incubated for 20 hours with DMSO (−) as a control, or with 5 μM of indole compounds shown in Table I. After 20 hours, the total RNAs are finally purified and analyzed by RT-PCR.

[2] = biological target: T1, interaction between hUPF1 and hUPF3X (Homo sapiens, UniProt Q92900+Q9BZI7); experiment: hUPF1 immunoprecipitation, presence of hUPF3X; type: cell-based; conditions: HeLa cell extracts, compound added 20 hours before IP
T1 construct: the hUPF1 protein was immunoprecipitated from HeLa cell extracts; endogenous in cells; host or cells: HeLa
T1 sequence (Q92900 1-1129): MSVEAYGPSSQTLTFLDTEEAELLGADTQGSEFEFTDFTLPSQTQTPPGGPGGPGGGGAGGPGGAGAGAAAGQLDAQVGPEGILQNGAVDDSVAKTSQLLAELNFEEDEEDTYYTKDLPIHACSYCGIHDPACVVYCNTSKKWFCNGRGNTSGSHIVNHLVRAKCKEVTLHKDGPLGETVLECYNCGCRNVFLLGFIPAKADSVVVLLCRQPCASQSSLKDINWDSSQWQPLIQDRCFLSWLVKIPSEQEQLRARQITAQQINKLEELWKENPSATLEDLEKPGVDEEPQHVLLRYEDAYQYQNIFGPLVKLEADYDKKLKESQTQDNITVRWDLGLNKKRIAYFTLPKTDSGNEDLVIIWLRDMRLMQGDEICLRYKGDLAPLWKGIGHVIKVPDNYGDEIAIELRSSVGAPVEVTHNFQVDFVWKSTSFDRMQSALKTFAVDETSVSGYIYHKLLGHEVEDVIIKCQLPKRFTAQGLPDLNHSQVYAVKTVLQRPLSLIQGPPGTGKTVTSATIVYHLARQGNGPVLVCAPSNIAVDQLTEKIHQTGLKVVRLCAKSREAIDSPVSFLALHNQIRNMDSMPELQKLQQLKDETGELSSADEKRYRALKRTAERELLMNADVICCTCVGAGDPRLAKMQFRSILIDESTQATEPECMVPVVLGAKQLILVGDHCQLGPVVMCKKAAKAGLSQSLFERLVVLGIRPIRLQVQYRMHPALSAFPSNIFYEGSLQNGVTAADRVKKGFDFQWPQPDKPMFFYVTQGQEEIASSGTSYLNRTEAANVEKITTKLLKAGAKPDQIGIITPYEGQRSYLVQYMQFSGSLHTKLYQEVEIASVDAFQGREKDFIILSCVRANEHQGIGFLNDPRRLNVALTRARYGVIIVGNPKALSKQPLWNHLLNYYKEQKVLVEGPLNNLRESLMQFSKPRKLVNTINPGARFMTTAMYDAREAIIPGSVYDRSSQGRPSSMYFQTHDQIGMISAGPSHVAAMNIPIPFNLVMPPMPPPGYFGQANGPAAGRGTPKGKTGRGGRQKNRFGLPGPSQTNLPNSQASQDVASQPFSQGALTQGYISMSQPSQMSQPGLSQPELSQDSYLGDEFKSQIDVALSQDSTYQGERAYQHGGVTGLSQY
T1 sequence (Q9BZI7 1-483): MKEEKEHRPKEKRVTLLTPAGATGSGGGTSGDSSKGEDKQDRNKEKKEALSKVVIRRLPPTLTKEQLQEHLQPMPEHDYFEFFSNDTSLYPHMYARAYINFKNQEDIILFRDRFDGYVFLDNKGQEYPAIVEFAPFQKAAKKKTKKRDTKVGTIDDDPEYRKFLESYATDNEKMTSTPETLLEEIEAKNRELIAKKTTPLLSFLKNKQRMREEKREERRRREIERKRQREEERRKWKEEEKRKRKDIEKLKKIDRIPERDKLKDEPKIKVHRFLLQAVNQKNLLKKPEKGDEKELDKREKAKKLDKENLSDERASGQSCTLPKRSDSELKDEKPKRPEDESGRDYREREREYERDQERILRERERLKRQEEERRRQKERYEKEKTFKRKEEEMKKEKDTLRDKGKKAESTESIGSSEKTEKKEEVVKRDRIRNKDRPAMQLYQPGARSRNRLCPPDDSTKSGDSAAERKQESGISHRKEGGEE
Experimental: Immunopurification of hUPF1 and western blot analysis were carried out according to a procedure described earlier (Lejeune and Maquat, 2004) by using an anti-hUPF1 antibody (Ohnishi et al., 2003), The western blot analyses were conducted by using a 1/250 dilution of anti-hUPF1, anti-hSMG5, anti-hSMG6 or anti-hSMG7 rabbit antibodies (Ohnishi et al., 2003), a 1/1000 dilution of anti-hUPF3/3X rabbit antibody (Ishigaki et al., 2001) or of anti-TUBILIN mouse antibody (SIGMA-ALDRICH). The proteins were detected by using the <<SuperSignal West Pico Chemiluminescent Substrate>> or <<SuperSignal West Femto Maximum Sensitivity Substrate>> (PIERCE).
In the light of the previous results, it was contemplated that the compound 70 would be able to prevent recruitment of hUPF1 to EJC via its interaction with other hUPF proteins. For this purpose, the hUPF1 protein was immunoprecipitated from HeLa cell extracts under conditions preserving the integrity of mRNPs (Lejeune and Maquat, 2004).
The compound 70 of DMSO(−) was added to cultures of cells 20 hours before immunoprecipitation (IP).

Cc1c2ccnc(Cl)c2c(C)c2c1[nH]c1ncccc12 [Compound 70, 6-Chloro-5,1-0dimethyl-11H-pyrido[3′,2′:4,5]-pyrrolo[3,2-g]isoquinoline]
NMD inhibition [1]: inhibitors of NMD | interaction between hUPF1 and hUPF3X [2]: not abolished
